{"source": "the supplement of paper PMC10307832", "test_in_all_cases": "relative viability (nuclei count vs DMSO), 5 days (fraction); higher = more cells survive", "key": {"[1]": {"test_system": "NCI-H727", "outline": "(§1)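 Relative viability is defined as nuclei in treated wells over nuclei in vehicle wells. Duplicate plates were run and medians reported. Lung cancer cell lines in 1536-well plates were dosed by pin tool one day after seeding, with one drug or with a fixed anchor-drug dose plus five library-drug doses (not always all listed) in √10 steps, and nuclei were counted after 5 days.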"}, "[2]": {"test_system": "PC-14", "outline": "as §1"}, "[3]": {"test_system": "NCI-H1915", "outline": "as §1"}, "[4]": {"test_system": "HARA", "outline": "as §1"}, "[5]": {"test_system": "NCI-H1734", "outline": "as §1"}, "[6]": {"test_system": "H3255", "outline": "as §1"}, "[7]": {"test_system": "ABC-1", "outline": "as §1"}, "[8]": {"test_system": "HCC-15", "outline": "as §1"}, "[9]": {"test_system": "LU99A", "outline": "as §1"}, "[10]": {"test_system": "NCI-H1437", "outline": "as §1"}, "[11]": {"test_system": "NCI-H460", "outline": "as §1"}, "[12]": {"test_system": "NCI-H1666", "outline": "as §1"}, "[13]": {"test_system": "LC-2-ad", "outline": "as §1"}, "[14]": {"test_system": "NCI-H1944", "outline": "as §1"}, "[15]": {"test_system": "SW 900", "outline": "as §1"}, "[16]": {"test_system": "NCI-H1648", "outline": "as §1"}, "[17]": {"test_system": "COR-L 105", "outline": "as §1"}, "[18]": {"test_system": "RERF-LC-KJ", "outline": "as §1"}, "[19]": {"test_system": "NCI-H650", "outline": "as §1"}, "[20]": {"test_system": "NCI-H2347", "outline": "as §1"}, "[21]": {"test_system": "HCC-366", "outline": "as §1"}, "[22]": {"test_system": "CAL-12T", "outline": "as §1"}, "[23]": {"test_system": "NCI-H838", "outline": "as §1"}}}
{"smiles": "C=C1C(=O)O[C@@H](CCCCCCCC)[C@@H]1C(=O)O", "note": "[C-75] + O=C(CCCCCCC(=O)Nc1ccccc1)NO [Vorinostat] (partner 1 µM)", "values": [{"measurement": "relative viability", "setting": "[1]; first compound 0.08 µM", "result": 1.22}, {"measurement": "relative viability", "setting": "[1]; first compound 0.253 µM", "result": 1.31}, {"measurement": "relative viability", "setting": "[1]; first compound 0.8 µM", "result": 0.973}, {"measurement": "relative viability", "setting": "[1]; first compound 2.53 µM", "result": 1.18}, {"measurement": "relative viability", "setting": "[1]; first compound 8 µM", "result": 1.23}, {"measurement": "relative viability", "setting": "[2]; first compound 0.08 µM", "result": 0.721}, {"measurement": "relative viability", "setting": "[2]; first compound 0.253 µM", "result": 0.741}, {"measurement": "relative viability", "setting": "[2]; first compound 0.8 µM", "result": 0.63}, {"measurement": "relative viability", "setting": "[2]; first compound 2.53 µM", "result": 0.61}, {"measurement": "relative viability", "setting": "[2]; first compound 8 µM", "result": 0.717}, {"measurement": "relative viability", "setting": "[3]; first compound 0.08 µM", "result": 0.506}, {"measurement": "relative viability", "setting": "[3]; first compound 0.253 µM", "result": 0.548}, {"measurement": "relative viability", "setting": "[3]; first compound 0.8 µM", "result": 0.526}, {"measurement": "relative viability", "setting": "[3]; first compound 2.53 µM", "result": 0.475}, {"measurement": "relative viability", "setting": "[3]; first compound 8 µM", "result": 0.536}, {"measurement": "relative viability", "setting": "[4]; first compound 0.08 µM", "result": 0.598}, {"measurement": "relative viability", "setting": "[4]; first compound 0.253 µM", "result": 0.258}, {"measurement": "relative viability", "setting": "[4]; first compound 0.8 µM", "result": 0.415}, {"measurement": "relative viability", "setting": "[4]; first compound 2.53 µM", "result": 0.537}, {"measurement": "relative viability", "setting": "[4]; first compound 8 µM", "result": 0.438}, {"measurement": "relative viability", "setting": "[5]; first compound 0.08 µM", "result": 0.834}, {"measurement": "relative viability", "setting": "[5]; first compound 0.253 µM", "result": 0.877}, {"measurement": "relative viability", "setting": "[5]; first compound 0.8 µM", "result": 0.766}, {"measurement": "relative viability", "setting": "[5]; first compound 2.53 µM", "result": 0.538}, {"measurement": "relative viability", "setting": "[5]; first compound 8 µM", "result": 0.693}, {"measurement": "relative viability", "setting": "[6]; first compound 0.08 µM", "result": 0.846}, {"measurement": "relative viability", "setting": "[6]; first compound 0.253 µM", "result": 0.621}, {"measurement": "relative viability", "setting": "[6]; first compound 0.8 µM", "result": 0.79}, {"measurement": "relative viability", "setting": "[6]; first compound 2.53 µM", "result": 0.627}, {"measurement": "relative viability", "setting": "[6]; first compound 8 µM", "result": 0.732}, {"measurement": "relative viability", "setting": "[7]; first compound 0.08 µM", "result": 1.32}, {"measurement": "relative viability", "setting": "[7]; first compound 0.253 µM", "result": 1.18}, {"measurement": "relative viability", "setting": "[7]; first compound 0.8 µM", "result": 0.547}, {"measurement": "relative viability", "setting": "[7]; first compound 2.53 µM", "result": 0.805}, {"measurement": "relative viability", "setting": "[7]; first compound 8 µM", "result": 0.649}, {"measurement": "relative viability", "setting": "[8]; first compound 0.08 µM", "result": 0.831}, {"measurement": "relative viability", "setting": "[8]; first compound 0.253 µM", "result": 0.918}, {"measurement": "relative viability", "setting": "[8]; first compound 0.8 µM", "result": 0.838}, {"measurement": "relative viability", "setting": "[8]; first compound 2.53 µM", "result": 0.862}, {"measurement": "relative viability", "setting": "[8]; first compound 8 µM", "result": 0.835}, {"measurement": "relative viability", "setting": "[9]; first compound 0.08 µM", "result": 0.476}, {"measurement": "relative viability", "setting": "[9]; first compound 0.253 µM", "result": 0.549}, {"measurement": "relative viability", "setting": "[9]; first compound 0.8 µM", "result": 0.413}, {"measurement": "relative viability", "setting": "[9]; first compound 2.53 µM", "result": 0.552}, {"measurement": "relative viability", "setting": "[9]; first compound 8 µM", "result": 0.495}, {"measurement": "relative viability", "setting": "[10]; first compound 0.08 µM", "result": 0.866}, {"measurement": "relative viability", "setting": "[10]; first compound 0.253 µM", "result": 0.98}, {"measurement": "relative viability", "setting": "[10]; first compound 0.8 µM", "result": 0.733}, {"measurement": "relative viability", "setting": "[10]; first compound 8 µM", "result": 0.717}, {"measurement": "relative viability", "setting": "[11]; first compound 0.08 µM", "result": 0.698}, {"measurement": "relative viability", "setting": "[11]; first compound 0.253 µM", "result": 0.882}, {"measurement": "relative viability", "setting": "[11]; first compound 0.8 µM", "result": 0.688}, {"measurement": "relative viability", "setting": "[11]; first compound 2.53 µM", "result": 0.58}, {"measurement": "relative viability", "setting": "[11]; first compound 8 µM", "result": 0.674}, {"measurement": "relative viability", "setting": "[12]; first compound 0.08 µM", "result": 1.05}, {"measurement": "relative viability", "setting": "[12]; first compound 0.253 µM", "result": 1.3}, {"measurement": "relative viability", "setting": "[12]; first compound 0.8 µM", "result": 0.895}, {"measurement": "relative viability", "setting": "[12]; first compound 8 µM", "result": 0.913}, {"measurement": "relative viability", "setting": "[13]; first compound 0.08 µM", "result": 0.72}, {"measurement": "relative viability", "setting": "[13]; first compound 0.253 µM", "result": 0.717}, {"measurement": "relative viability", "setting": "[13]; first compound 0.8 µM", "result": 0.681}, {"measurement": "relative viability", "setting": "[13]; first compound 2.53 µM", "result": 0.689}, {"measurement": "relative viability", "setting": "[13]; first compound 8 µM", "result": 0.666}, {"measurement": "relative viability", "setting": "[14]; first compound 0.08 µM", "result": 0.571}, {"measurement": "relative viability", "setting": "[14]; first compound 0.253 µM", "result": 0.591}, {"measurement": "relative viability", "setting": "[14]; first compound 0.8 µM", "result": 0.475}, {"measurement": "relative viability", "setting": "[14]; first compound 2.53 µM", "result": 0.42}, {"measurement": "relative viability", "setting": "[14]; first compound 8 µM", "result": 0.483}, {"measurement": "relative viability", "setting": "[15]; first compound 0.08 µM", "result": 0.669}, {"measurement": "relative viability", "setting": "[15]; first compound 0.253 µM", "result": 0.824}, {"measurement": "relative viability", "setting": "[15]; first compound 0.8 µM", "result": 0.47}, {"measurement": "relative viability", "setting": "[15]; first compound 2.53 µM", "result": 0.395}, {"measurement": "relative viability", "setting": "[15]; first compound 8 µM", "result": 0.49}, {"measurement": "relative viability", "setting": "[16]; first compound 0.08 µM", "result": 0.571}, {"measurement": "relative viability", "setting": "[16]; first compound 0.253 µM", "result": 1.1}, {"measurement": "relative viability", "setting": "[16]; first compound 0.8 µM", "result": 0.283}, {"measurement": "relative viability", "setting": "[16]; first compound 8 µM", "result": 0.216}, {"measurement": "relative viability", "setting": "[17]; first compound 0.08 µM", "result": 0.906}, {"measurement": "relative viability", "setting": "[17]; first compound 0.253 µM", "result": 0.826}, {"measurement": "relative viability", "setting": "[17]; first compound 0.8 µM", "result": 0.895}, {"measurement": "relative viability", "setting": "[17]; first compound 2.53 µM", "result": 0.859}, {"measurement": "relative viability", "setting": "[17]; first compound 8 µM", "result": 0.813}, {"measurement": "relative viability", "setting": "[18]; first compound 0.08 µM", "result": 0.713}, {"measurement": "relative viability", "setting": "[18]; first compound 0.253 µM", "result": 0.801}, {"measurement": "relative viability", "setting": "[18]; first compound 0.8 µM", "result": 0.687}, {"measurement": "relative viability", "setting": "[18]; first compound 2.53 µM", "result": 0.69}, {"measurement": "relative viability", "setting": "[18]; first compound 8 µM", "result": 0.71}, {"measurement": "relative viability", "setting": "[19]; first compound 0.08 µM", "result": 0.413}, {"measurement": "relative viability", "setting": "[19]; first compound 0.253 µM", "result": 0.388}, {"measurement": "relative viability", "setting": "[19]; first compound 0.8 µM", "result": 0.401}, {"measurement": "relative viability", "setting": "[19]; first compound 2.53 µM", "result": 0.351}, {"measurement": "relative viability", "setting": "[19]; first compound 8 µM", "result": 0.416}, {"measurement": "relative viability", "setting": "[20]; first compound 0.08 µM", "result": 0.567}, {"measurement": "relative viability", "setting": "[20]; first compound 0.253 µM", "result": 0.842}, {"measurement": "relative viability", "setting": "[20]; first compound 0.8 µM", "result": 0.614}, {"measurement": "relative viability", "setting": "[20]; first compound 2.53 µM", "result": 0.535}, {"measurement": "relative viability", "setting": "[20]; first compound 8 µM", "result": 0.615}, {"measurement": "relative viability", "setting": "[21]; first compound 0.08 µM", "result": 0.409}, {"measurement": "relative viability", "setting": "[21]; first compound 0.253 µM", "result": 0.399}, {"measurement": "relative viability", "setting": "[21]; first compound 0.8 µM", "result": 0.256}, {"measurement": "relative viability", "setting": "[21]; first compound 2.53 µM", "result": 0.269}, {"measurement": "relative viability", "setting": "[21]; first compound 8 µM", "result": 0.301}, {"measurement": "relative viability", "setting": "[22]; first compound 0.08 µM", "result": 0.721}, {"measurement": "relative viability", "setting": "[22]; first compound 0.253 µM", "result": 1.12}, {"measurement": "relative viability", "setting": "[22]; first compound 0.8 µM", "result": 0.918}, {"measurement": "relative viability", "setting": "[22]; first compound 2.53 µM", "result": 0.674}, {"measurement": "relative viability", "setting": "[22]; first compound 8 µM", "result": 0.89}, {"measurement": "relative viability", "setting": "[23]; first compound 0.08 µM", "result": 0.761}, {"measurement": "relative viability", "setting": "[23]; first compound 0.253 µM", "result": 0.669}, {"measurement": "relative viability", "setting": "[23]; first compound 0.8 µM", "result": 0.726}, {"measurement": "relative viability", "setting": "[23]; first compound 2.53 µM", "result": 0.648}, {"measurement": "relative viability", "setting": "[23]; first compound 8 µM", "result": 0.663}]}
